The record followed here is patent US20240239779A1, “HERBICIDAL COMPOUNDS” (SYNGENTA CROP PROTECTION AG, priority 2021, published 2024).

Assay type in all cases: in vivo
Common to all, as to details: 250 g/ha, evaluated after 13 days, 100=total damage to plant, 0=no damage to plant

For assay [1], the system named is AMAPA. Description: Pre-emergence biological efficacy. How it is done: (§1) Seeds of weeds and/or crops were sown in standard soil in pots. After cultivation for one day under controlled conditions in a glasshouse (at 24/19° C., day/night; 16 hours light), the plants were sprayed with an aqueous spray solution derived from the formulation of the technical active ingredient in a small amount of acetone and a special solvent and emulsifier mixture referred to as IF50 (11.12% Emulsogen EL360 TM+44.44% N-methylpyrrolidone+44.44% Dowanol DPM glycol ether), to create a 50 g/l solution which was then diluted using 0.2% Genapol XO80 as diluent to give the desired final dose of test compound.
(§2) The test plants were then grown under controlled conditions in the glasshouse (at 24/18° C., day/night; 15 hours light; 50% humidity) and watered twice daily. After 13 days the test was evaluated (100=total damage to plant; 0=no damage to plant).

The test system of assay [2] is LOLPE. Description: Pre-emergence biological efficacy. How it is done: as §1, §2
In assay [3] the test system is EPHHL. The assay can be described thus: Pre-emergence biological efficacy. How it is done:
as §1, §2

The test system of assay [4] is IPOHE. Description: Pre-emergence biological efficacy. How it is done:
as §1, §2

Assay [5] relates to ECHCG. The assay can be described thus: Pre-emergence biological efficacy. How it is done: as §1, §2
The subject of assay [6] is SETFA. The assay can be described thus: Pre-emergence biological efficacy. How it is done: as §1, §2
Assay [7] relates to CHEAL. The assay can be described thus: Post-emergence biological efficacy. As to the method: as §1, with “14 days” for “one day”
(§3) The test plants were then grown under controlled conditions in the glasshouse (at 24/18° C., day/night; 15 hours light; 50% humidity)and watered twice daily. After 13 days the test was evaluated (100=total damage to plant; 0=no damage to plant).

The test system of assay [8] is AMAPA. Description: Post-emergence biological efficacy. As to the method:
as §1, with “14 days” for “one day”
as §3

Assay [9] has as its system LOLPE. The assay can be described thus: Post-emergence biological efficacy. As to the method: as §1, with “14 days” for “one day”
as §3

Assay [10] deals with DIGSA. Description: Post-emergence biological efficacy. As to the method:
as §1, with “14 days” for “one day”
as §3

Assay [11] deals with EPHHL. Description: Post-emergence biological efficacy. How it is done: as §1, with “14 days” for “one day”
as §3

The subject of assay [12] is IPOHE. Description: Post-emergence biological efficacy. How it is done: as §1, with “14 days” for “one day”
as §3

In assay [13] the test system is ELEIN. The assay can be described thus: Post-emergence biological efficacy. How it is done: as §1, with “14 days” for “one day”
as §3

Assay [14] has as its system ECHCG. Description: Post-emergence biological efficacy. How it is done: as §1, with “14 days” for “one day”
as §3

Assay [15] relates to SETFA. Description: Post-emergence biological efficacy. How it is done:
as §1, with “14 days” for “one day”
as §3

Regarding `CCOC(=O)C1(C)CC(c2nc(-n3c(=O)cc(C(F)(F)F)n(C)c3=O)c(F)cc2Cl)=NO1` (stereo not drawn) [Compound 14, ethyl 3-[3-chloro-5-fluoro-6-[3-methyl-2,6-dioxo-4-(trifluoromethyl)pyrimidin-1-yl]-2-pyridyl]-5-methyl-4H-isoxazole-5-carboxylate], the “damage to plant, AMAPA” value in assay [1] and in assay [8] was 100 in each case. Further, the “damage to plant, LOLPE” value in assay [2] turned out to be 90; in assay [9] it was 100. Besides, the “damage to plant, EPHHL” value in [3] and in assay [11] was 100 throughout. Further, the “damage to plant, IPOHE” value in assay [4] and in assay [12] was 100 each time. Besides, the “damage to plant, ECHCG” value in assay [5] and in assay [14] was 100 in each case. The “damage to plant, SETFA” value in [6] and in [15] was 100 throughout. The “damage to plant, CHEAL” value in assay [7] is 100. The “damage to plant, DIGSA” value in assay [10] is on record as 100. Moreover, the “damage to plant, ELEIN” value in assay [13] is reported as 100.
